Earlier results on 1 compound are cited in US20090203786A1, “Methods and Composition for Improving Cognitive Function” (priority 2005, published 2009).

Molecules are shown by their SMILES.

For the data set the following is noted: Connor W E et al. (1990).

For the compound `CC/C=C\C/C=C\C/C=C\C/C=C\C/C=C\C/C=C\CCC(=O)O` [DHA, docosahexaenoic acid], the “half-life of DHA in brain” value (Rhesus monkey brain) is on record as 21 days. Moreover, where the note is “Rhesus monkeys, stabilized after 12 weeks of supplementation”, the “Cerebral DHA concentration relative to pre-supplementation value” was 7 times.
